In US12509460B2 (Skyhawk Therapeutics, Inc., priority 2019, dated 2025):
Read-outs that look alike come from different tables or passages of the source.

How the values were obtained:
[1] = test system: mHTT protein in GM04724 (CAG 70/20) Huntington's disease patient lymphoblast cells; assay: mHTT protein assay, 2B7-MW1 assay via Mesoscale Discovery (MSD); format: cell-based, human
In short: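 Patient lymphoblasts treated 48 h with compound from 10 μM to 0.6 nM. mHTT quantified by MSD 2B7-MW1 immunoassay, whose signal depends on polyQ expansion and HTT size. Viability measured on a replicate plate by CellTiter Glo.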

[2] = test system: SMN FL and SMN Δ7 in spinal muscular atrophy (SMA) patient fibroblasts (GM03813, Coriell); assay: Quantitative splicing assay (SMN), qPCR; format: cell-based, human; conditions: Homo sapiens, Fibroblast, 24 h, read-out: SMN2 Splicing FL EC50
Description: Spinal muscular atrophy (SMA) patient fibroblasts (GM03813, Coriell) are plated in 96-well plates at 50,000 cells/well. […] Treated cells are lysed and cDNA synthesized using the Fast Advanced Cells-to-Ct kit (Thermofisher A35378) according to the manufacturer's instructions. 2 μL of each cDNA are used in qPCR reactions. […] Reactions are run in a Quant Studio 6 qPCR instrument with default settings.

[3] = Quantitative splicing assay (HTT), qPCR; format: cell-based, human; conditions: Homo sapiens, GM04724, 24 h, GM04724 lymphoblasts, read-out: HTT Splicing: E49-50 EC50
In short: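 Patient lymphoblasts (50,000 cells/well) dosed immediately after plating for 24 h at 2.5 uM to 0.15 nM in 0.1% DMSO. Lysed, cDNA made directly from cells, and inclusion of the intron 49 cryptic exon quantified by TaqMan qPCR.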

[4] = test system: SMN protein in spinal muscular atrophy (SMA) patient fibroblasts (GM03813, Coriell); assay: SMN protein assay, Mesoscale Discovery (MSD); format: cell-based, human; conditions: read-out: SMN2 protein EC50
In short: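 SMA patient fibroblasts (GM03813) seeded at 7000 cells/well and exposed to compound at 2.5 μM to 0.6 nM for 48 hours. Lysates assayed for SMN by MSD immunoassay, with absolute SMN amount calculated from a per-plate SMN standard curve (1 μg/ml to 19.5 pg/ml).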

MDR1 = assay: Blood-brain-barrier (BBB) penetration potential via MDCK-MDR1 permeability assay; conditions: dog, MDCK-MDR1, pH 7.4, MDCK-MDR1: Efflux
[5] = test system: MDR1-MDCK cell monolayers; assay: as above
MDR1 (P-gp) = assay: as above; conditions: dog; for Papp A→B at 120 min, 5 μM: MDCK-MDR1, pH 7.4, MDCK-MDR1: Papp A-B; for Papp B→A at 120 min, 5 μM: MDCK-MDR1, pH 7.4, MDCK-MDR1: Papp B-A
[6] = GM04724 Huntington's disease patient lymphoblasts
[7] = SMA patient fibroblasts GM03813, 24 h, qPCR
[8] = SMA patient fibroblasts GM03813, 48 hours, MSD
[9] = GM04724 (CAG 70/20) Huntington's disease patient lymphoblasts
[10] = SMA patient fibroblasts (GM03813)
[11] = SMA patient fibroblasts (GM03813), 48 hours

Row | Structure (SMILES) | EC50 [1, 6] [nM] | EC50 [2, 7] [nM] | EC50 ([3]; qPCR) [nM] | EC50 [4, 8] [nM] | efflux ratio at 120 min, 5 μM (MDR1; efflux ratio) | MDCK-MDR1: % Recov A-B ([5]; A-B direction) [%] | MDCK-MDR1: % Recov B-A ([5]; B-A direction) [%] | Papp A→B at 120 min, 5 μM (MDR1 (P-gp); A-B direction) [×10⁻⁶ cm/s] | Papp B→A at 120 min, 5 μM (MDR1 (P-gp); B-A direction) [×10⁻⁶ cm/s] | EC50 [1, 9] [nM] | EC50 [2, 10] [nM] | EC50 [3] [nM] | EC50 [4, 11] [nM] | efflux ratio at 120 min, 5 μM (MDR1) | MDCK-MDR1: % Recov A-B ([5]; A-B) [%] | MDCK-MDR1: % Recov B-A ([5]; B-A) [%] | Papp A→B at 120 min, 5 μM (MDR1 (P-gp); A-B) [×10⁻⁶ cm/s] | Papp B→A at 120 min, 5 μM (MDR1 (P-gp); B-A) [×10⁻⁶ cm/s]
1 | CN(c1ccc(-c2cc3cnn(C)c3cc2O)nn1)[C@H]1C[C@@H]2CC[C@@H](N2)[C@H]1F [Compound 76B, 5-(6-(((1R,2R,3S,5S)-2-fluoro-8-azabicyclo[3.2.1]octan-3-yl)(methyl)amino)pyridazin-3-yl)-1-methyl-1H-indazol-6-ol] | 0.01 to 15 | 16 to 50 | 16 to 50 | 0.01 to 15 | 15 | 84 | 93 | 3.97 | 60.3 | – | – | – | – | – | – | – | – | –
2 | CN(c1ccc(-c2cc3ccn(C)c(=O)c3cc2O)nn1)[C@@H]1C[C@H]2CC[C@H](N2)[C@@H]1F [Compound 84A, 6-(6-(((1S,2S,3R,5R)-2-fluoro-8-azabicyclo[3.2.1]octan-3-yl)(methyl)amino)pyridazin-3-yl)-7-hydroxy-2-methylisoquinolin-1(2H)-one] | 0.01 to 15 | 16 to 50 | 16 to 50 | 0.01 to 15 | 58 | 92 | 90 | 0.9 | 52 | – | – | – | – | – | – | – | – | –
3 | CN(c1ccc(-c2ccc(-c3cnccn3)cc2O)nn1)[C@H]1C[C@@H]2CCC[C@@H](N2)[C@H]1F [Compound 24B, 2-(6-(((1R,2R,3S,5S)-2-fluoro-9-azabicyclo[3.3.1]nonan-3-yl)(methyl)amino)pyridazin-3-yl)-5-(pyrazin-2-yl)phenol] | 0.01 to 15 | 0.01 to 15 | 0.01 to 15 | 0.01 to 15 | 6 | 73 | 91 | 5.99 | 33.8 | – | – | – | – | – | – | – | – | –
4 | CN(c1ccc(-c2cc3occc(=O)c3cc2O)nn1)[C@H]1C[C@@H]2CC[C@@H](N2)[C@H]1F [Compound 43B, 7-(6-(((1R,2R,3S,5S)-2-fluoro-8-azabicyclo[3.2.1]octan-3-yl)(methyl)amino)pyridazin-3-yl)-6-hydroxy-4H-chromen-4-one] | 0.01 to 15 | 0.01 to 15 | 0.01 to 15 | 0.01 to 15 | 12 | 66 | 48 | 2.32 | 28.3 | – | – | – | – | – | – | – | – | –
5 | CN(c1ccc(-c2ccc(-n3ccnc3)cc2O)nn1)[C@H]1C[C@@H]2CCC[C@@H](N2)[C@H]1F [Compound 11B, 2-(6-(((1R,2R,3S,5S)-2-fluoro-9-azabicyclo[3.3.1]nonan-3-yl)(methyl)amino)pyridazin-3-yl)-5-(1H-imidazol-1-yl)phenol] | 0.01 to 15 | 0.01 to 15 | 0.01 to 15 | 16 to 50 | 23 | 77 | 89 | 2.4 | 55 | – | – | – | – | – | – | – | – | –
6 | CN(c1ccc(-c2ccc(-n3ccnn3)cc2O)nn1)[C@H]1C[C@@H]2CC[C@@H](N2)[C@H]1F [Compound 61B, 2-(6-(((1R,2R,3S,5S)-2-fluoro-8-azabicyclo[3.2.1]octan-3-yl)(methyl)amino)pyridazin-3-yl)-5-(1H-1,2,3-triazol-1-yl)phenol] | 0.01 to 15 | 0.01 to 15 | 0.01 to 15 | 0.01 to 15 | 12 | 98 | 93 | 3.79 | 45.8 | – | – | – | – | – | – | – | – | –
7 | CN(c1ccc(-c2cc3ncccc3cc2O)nn1)[C@H]1C[C@@H]2CC[C@@H](N2)[C@H]1F [Compound 73B, 7-(6-(((1R,2R,3S,5S)-2-fluoro-8-azabicyclo[3.2.1]octan-3-yl)(methyl)amino)pyridazin-3-yl)quinolin-6-ol] | 16 to 50 | 0.01 to 15 | 0.01 to 15 | 16 to 50 | 16 | 72 | 72 | 3.38 | 55.1 | – | – | – | – | – | – | – | – | –
8 | CN(c1ccc(-c2ccc(-c3cc[nH]n3)cc2O)nn1)[C@@H]1C[C@H]2CC[C@H](N2)[C@@H]1F (single isomer, unassigned) [Compound 33A] | 16 to 50 | 51 to 100 | 16 to 50 | 16 to 50 | 31 | 95 | 105 | 1.33 | 40.7 | – | – | – | – | – | – | – | – | –
9 | Cc1nc2cc(O)c(-c3ccc(N(C)[C@H]4C[C@@H]5CC[C@@H](N5)[C@H]4F)nn3)cc2s1 [Compound 116B, 6-(6-(((1R,2R,3S,5S)-2-fluoro-8-azabicyclo[3.2.1]octan-3-yl)(methyl)amino)pyridazin-3-yl)-2-methylbenzo[d]thiazol-5-ol] | – | – | – | – | – | – | – | – | – | 0.01 to 15 | 0.01 to 15 | 0.01 to 15 | 0.01 to 15 | 7 | 77 | 80 | 6.29 | 43.2
10 | CN(c1ccc(-c2cc3c(=O)n(C)ccc3cc2O)nn1)[C@@H]1C[C@H]2CC[C@@H]([C@@H]1F)N2C [Compound 98A, 7-(6-(((1S,2S,3R,5R)-2-fluoro-8-methyl-8-azabicyclo[3.2.1]octan-3-yl)(methyl)amino)pyridazin-3-yl)-6-hydroxy-2-methylisoquinolin-1(2H)-one] | – | – | – | – | – | – | – | – | – | 101 to 500 | 101 to 500 | 101 to 500 | 16 to 50 | 16 | 86 | 105 | 4.11 | 64.7
11 | CN(c1ccc(-c2cc3c(=O)n(C)ccc3cc2O)nn1)[C@@H]1C[C@H]2CC[C@H](N2)[C@@H]1F [Compound 83A, 7-(6-(((1S,2S,3R,5R)-2-fluoro-8-azabicyclo[3.2.1]octan-3-yl)(methyl)amino)pyridazin-3-yl)-6-hydroxy-2-methylisoquinolin-1(2H)-one] | 0.01 to 15 | 0.01 to 15 | 0.01 to 15 | 0.01 to 15 | 44 | 89 | 83 | 0.98 | 43.5 | – | – | – | – | – | – | – | – | –
